Source: patent US20250388574A1, “HETEROCYCLIC COMPOUNDS AS TRIGGERING RECEPTOR EXPRESSED ON MYELOID CELLS 2 AGONISTS AND METHODS OF USE” (AMGEN INC., priority 2020, published 2025)

Target: hTREM2 (Homo sapiens, UniProt Q9NZC2)
Experiment: Phospho-Syk AlphaScreen/AlphaLISA assay in TREM2 and DAP12 overexpressing HEK293 cells (Example A1)
Assay type: cell-based
Parameters: expressed in transfected cells
Conditions: HEK293 cells; for EC50: read-out: hTREM2 EC50
Summary of the method: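 Single-cell-cloned HEK293 stably overexpressing TREM2 and DAP12, plated 20,000 cells/well for 20 h, then exposed to compounds (1% DMSO) 45 min at room temperature. Lysates probed for phospho-Syk by AlphaLISA sandwich (anti-pSyk, biotinylated anti-Syk); signal normalized to percent of control (100 nM anti-TREM2 antibody vs isotype) and fitted by 4-parameter logistic.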

Chain of hTREM2 (Q9NZC2 19-230): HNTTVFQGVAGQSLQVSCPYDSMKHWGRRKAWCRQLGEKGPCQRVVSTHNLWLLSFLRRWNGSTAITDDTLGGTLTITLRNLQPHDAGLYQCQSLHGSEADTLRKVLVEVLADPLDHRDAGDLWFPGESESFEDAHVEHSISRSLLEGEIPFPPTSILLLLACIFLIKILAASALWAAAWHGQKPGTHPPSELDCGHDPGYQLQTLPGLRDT
Chain of hTREM2 (O43914 22-113 partner): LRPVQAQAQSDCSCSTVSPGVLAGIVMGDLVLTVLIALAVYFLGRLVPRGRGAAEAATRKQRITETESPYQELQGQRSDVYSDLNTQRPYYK

Row | Emax | EC50 | SMILES
1 | ++++ (Emax>300) | 3000 to 100000 nM | CCn1c(C)nc2cc(N3CCO[C@@H](c4noc(C)n4)C3)nc(-c3ccc(Cl)cc3F)c2c1=O [Example 148, 5-(4-chloro-2-fluorophenyl)-3-ethyl-2-methyl-7-((2R)-2-(5-methyl-1,2,4-oxadiazol-3-yl)-4-morpholinyl)pyrido[4,3-d]pyrimidin-4(3H)-one]
2 | +++ (Emax>200 and ≤300) | 50 to 500 nM | Cc1nnc([C@H]2CN(c3cc4nc(C)n(C)c(=O)c4c(-c4ccc(Cl)cc4F)n3)CCO2)o1 (single isomer, unassigned) [Example 59]
3 | ++++ (Emax>300) | 500 to 3000 nM | Cc1nc2cc(N3CCOC(c4cnn(C)c4)C3)cc(-c3ncc(Cl)cc3F)c2c(=O)n1C (stereo not shown) [Example 15, 5-(5-chloro-3-fluoro-2-pyridinyl)-2,3-dimethyl-7-(2-(1-methyl-1H-pyrazol-4-yl)-4-morpholinyl)-4(3H)-quinazolinone]
4 | +++ (Emax>200 and ≤300) | 500 to 3000 nM | Cc1nc2cc(N3CCO[C@H](c4ccnc(C(F)(F)F)c4)C3)nc(-c3ccc(Cl)cc3F)c2c(=O)n1C [Example 265, (R)-5-(4-chloro-2-fluorophenyl)-2,3-dimethyl-7-(2-(2-(trifluoromethyl)pyridin-4-yl)morpholino)pyrido[4,3-d]pyrimidin-4(3H)-one]
5 | ++ (Emax>100 and ≤200) | 3000 to 100000 nM | Cc1nc2cc(N3CCC[C@@H](C4CNC4)C3)nc(-c3ccc(Cl)cc3F)c2c(=O)n1C [Example 251, (S)-7-(3-(azetidin-3-yl)piperidin-1-yl)-5-(4-chloro-2-fluorophenyl)-2,3-dimethylpyrido[4,3-d]pyrimidin-4(3H)-one]
6 | ++++ (Emax>300) | 500 to 3000 nM | Cc1nc2cc(N3CCO[C@H](c4ccc(OCC(F)(F)F)nc4)C3)nc(-c3ccc(Cl)cc3F)c2c(=O)n1C [Example 235, (R)-5-(4-chloro-2-fluorophenyl)-2,3-dimethyl-7-(2-(6-(2,2,2-trifluoroethoxy)pyridin-3-yl)morpholino)pyrido[4,3-d]pyrimidin-4(3H)-one]
7 | ++++ (Emax>300) | 50 to 500 nM | CCCn1c(C)nc2cc(N3CCOC(c4cnn(C)c4)C3)nc(-c3ncc(Cl)cc3F)c2c1=O (stereo not shown) [Example 21, 5-(5-chloro-3-fluoro-2-pyridinyl)-2-methyl-7-(2-(1-methyl-1H-pyrazol-4-yl)-4-morpholinyl)-3-propylpyrido-[4,3-d]pyrimidin-4(3H)-one]
8 | +++ (Emax>200 and ≤300) | 50 to 500 nM | Cc1nc2cc(N3CCC[C@H](c4cnn(C)c4)C3)nc(-c3ccc(Cl)cc3F)c2c(=O)n1C (single isomer, unassigned) [Example 100]
9 | ++ (Emax>100 and ≤200) | 3000 to 100000 nM | Cc1c([C@H]2CN(c3cc4nc(C)n(C)c(=O)c4c(-c4ccc(Cl)cc4F)n3)CCO2)cnn1C (single isomer, unassigned) [Example 67]
10 | +++ (Emax>200 and ≤300) | < 50 nM | Cc1nc2cc(N3CCO[C@@H](c4cnn(C(CF)CF)c4)C3)nc(-c3ccc(Cl)cc3F)c2c(=O)n1C [Example 133, 5-(4-chloro-2-fluorophenyl)-7-((2S)-2-(1-(1,3-difluoro-2-propanyl)-1H-pyrazol-4-yl)-4-morpholinyl)-2,3-dimethylpyrido[4,3-d]pyrimidin-4(3H)-one]
11 | +++ (Emax>200 and ≤300) | 50 to 500 nM | Cc1ccc(C2CC(c3cc4nc(C)n(C)c(=O)c4c(-c4ccc(Cl)cc4F)n3)CCO2)cn1 (stereo not shown) [Example 171, 5-(4-chloro-2-fluorophenyl)-2,3-dimethyl-7-(2-(6-methylpyridin-3-yl)tetrahydro-2H-pyran-4-yl)pyrido[4,3-d]pyrimidin-4(3H)-one]
12 | +++ (Emax>200 and ≤300) | 3000 to 100000 nM | Cc1nc2cc(N3CC[C@H](N(C)C)C3)nc(-c3ccc(Cl)cc3F)c2c(=O)n1C [Example 255, (S)-5-(4-chloro-2-fluorophenyl)-7-(3-(dimethylamino)pyrrolidin-1-yl)-2,3-dimethylpyrido[4,3-d]pyrimidin-4(3H)-one]
13 | +++ (Emax>200 and ≤300) | 3000 to 100000 nM | Cc1nc2cc([C@@H]3CCO[C@H](c4cnn(C)c4)C3)nc(-c3ccc(Cl)cc3F)c2c(=O)n1C (single isomer, unassigned) [Example 163]
14 | ++ (Emax>100 and ≤200) | 500 to 3000 nM | Cc1nc2cc(N3CCO[C@@H](c4cnn(C)c4)C3)nc(-c3ccc(Cl)cc3F)c2c(=O)n1C1CCCCC1 [Example 18, 5-(4-chloro-2-fluorophenyl)-3-cyclohexyl-2-methyl-7-((2S)-2-(1-methyl-1H-pyrazol-4-yl)-4-morpholinyl)pyrido[4,3-d]pyrimidin-4(3H)-one]
15 | ++++ (Emax>300) | 50 to 500 nM | COCCn1cc([C@H]2CN(c3cc4nc(C)n(C)c(=O)c4c(-c4ccc(Cl)cc4F)n3)CCO2)cn1 [Example 127, 5-(4-chloro-2-fluorophenyl)-7-((2S)-2-(1-(2-methoxyethyl)-1H-pyrazol-4-yl)-4-morpholinyl)-2,3-dimethylpyrido[4,3-d]pyrimidin-4(3H)-one]
16 | ++++ (Emax>300) | 50 to 500 nM | CCn1cc([C@@H]2CN(c3cc4nc(C)n(C)c(=O)c4c(-c4ccc(Cl)cc4F)n3)CCO2)cn1 (single isomer, unassigned) [Example 24]
17 | +++ (Emax>200 and ≤300) | < 50 nM | CCn1c(C)nc2cc(N3CCO[C@@H](c4ccnc(C)c4)C3)nc(-c3ccc(Cl)cc3F)c2c1=O [Example 149, 5-(4-chloro-2-fluorophenyl)-3-ethyl-2-methyl-7-((2S)-2-(2-methyl-4-pyridinyl)-4-morpholinyl)pyrido[4,3-d]pyrimidin-4(3H)-one]
18 | ++++ (Emax>300) | 50 to 500 nM | Cc1nc2cc(N3CCOC(c4ccc(C#N)cc4)C3)nc(-c3ccc(Cl)cc3F)c2c(=O)n1C (stereo not shown) [Example 90, 4-(4-(5-(4-chloro-2-fluorophenyl)-2,3-dimethyl-4-oxo-3,4-dihydropyrido [4,3-d]pyrimidin-7-yl)-2-morpholinyl)benzonitrile]
19 | +++ (Emax>200 and ≤300) | 3000 to 100000 nM | Cc1nc2cc(N3CCO[C@@H](c4cnn(C)c4)C3)nc(-c3cccc(F)c3F)c2c(=O)n1C [Example 227, (S)-5-(2,3-difluorophenyl)-2,3-dimethyl-7-(2-(1-methyl-1H-pyrazol-4-yl)morpholino)pyrido[4,3-d]pyrimidin-4(3H)-one]
20 | ++++ (Emax>300) | 500 to 3000 nM | CCCn1c(C)nc2cc(N3CCO[C@H](c4ccccc4)C3)nc(-c3ccc(Cl)cc3F)c2c1=O [Example 186, (R)-5-(4-chloro-2-fluorophenyl)-2-methyl-7-(2-phenylmorpholino)-3-propylpyrido[4,3-d]pyrimidin-4(3H)-one]
21 | ++++ (Emax>300) | 50 to 500 nM | Cc1csc(C2CN(c3cc4nc(C)n(C)c(=O)c4c(-c4ccc(Cl)cc4F)n3)CCO2)n1 (stereo not shown) [Example 75, 5-(4-chloro-2-fluorophenyl)-2,3-dimethyl-7-(2-(4-methyl-1,3-thiazol-2-yl)-4-morpholinyl)pyrido[4,3-d]pyrimidin-4(3H)-one]
22 | +++ (Emax>200 and ≤300) | 500 to 3000 nM | Cc1nc2cc(N3CCO[C@@](C)(c4cnn(C)c4)C3)nc(-c3ccc(Cl)cc3F)c2c(=O)n1C [Example 224, (S)-5-(4-chloro-2-fluorophenyl)-2,3-dimethyl-7-(2-methyl-2-(1-methyl-1H-pyrazol-4-yl)morpholino)pyrido[4,3-d]pyrimidin-4(3H)-one]
23 | ++++ (Emax>300) | 500 to 3000 nM | CCCn1c(C)nc2cc(N3CCO[C@H](C(F)F)C3)nc(-c3ccc(Cl)cc3F)c2c1=O [Example 191, (S)-5-(4-chloro-2-fluorophenyl)-7-(2-(difluoromethyl)morpholino)-2-methyl-3-propylpyrido[4,3-d]pyrimidin-4(3H)-one]
24 | +++ (Emax>200 and ≤300) | 500 to 3000 nM | Cc1nc2cc([C@@H]3CCO[C@H](c4cnn(C5CC5)c4)C3)nc(-c3ccc(Cl)cc3F)c2c(=O)n1C (single isomer, unassigned) [Example 166]
25 | +++ (Emax>200 and ≤300) | 500 to 3000 nM | Cc1nc2cc(N3CCO[C@H](c4cnn(C)c4)C3)cc(-c3ccc(Cl)cc3F)c2c(=O)n1C [Example 4, 5-(4-chloro-2-fluorophenyl)-2,3-dimethyl-7-((2R)-2-(1-methyl-1H-pyrazol-4-yl)-4-morpholinyl)-4(3H)-quinazolinone]
26 | ++ (Emax>100 and ≤200) | 500 to 3000 nM | Cc1nc2cc(N3CCO[C@@H](c4cnn(C)c4)C3)nc(-c3ccc(Cl)cc3F)c2c(=O)[nH]1 [Example 145, 5-(4-chloro-2-fluorophenyl)-2-methyl-7-((2S)-2-(1-methyl-1H-pyrazol-4-yl)-4-morpholinyl)pyrido[4,3-d]pyrimidin-4(3H)-one]
27 | +++ (Emax>200 and ≤300) | 50 to 500 nM | Cc1nc2cc(N3CCCC(C4CNC(=O)C4)C3)nc(-c3ccc(Cl)cc3F)c2c(=O)n1C (stereo not shown) [Example 106, 5-(4-chloro-2-fluorophenyl)-2,3-dimethyl-7-(3-(5-oxo-3-pyrrolidinyl)-1-piperidinyl)-pyrido[4,3-d]pyrimidin-4(3H)-one]
28 | ++++ (Emax>300) | 50 to 500 nM | Cc1nc2cc(N3CCO[C@H](c4ccsc4)C3)nc(-c3ccc(Cl)cc3F)c2c(=O)n1C (single isomer, unassigned) [Example 54]
29 | +++ (Emax>200 and ≤300) | 50 to 500 nM | CCn1c(C)nc2cc(N3CCO[C@H](c4noc(C)n4)C3)nc(-c3ccc(Cl)cc3F)c2c1=O [Example 264, (S)-5-(4-chloro-2-fluorophenyl)-3-ethyl-2-methyl-7-(2-(5-methyl-1,2,4-oxadiazol-3-yl)morpholino)pyrido[4,3-d]pyrimidin-4(3H)-one]
